Measured values from PubChem BioAssay (NCI).
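Test compounds were applied to cells in 96-well plates for 48 hours at 5 doses. GI50 marks 50% less growth. TGI marks complete inhibition of growth.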

Assays:
Assay in all cases: growth of human tumour cells (NCI), 48 h; in the data active = GI50 below about 0.43 µM; inactive = the rest
786-0 renal = tested on: 786-0 renal
A498 renal = tested on: A498 renal
A549 NSCLC = tested on: A549 NSCLC
ACHN renal = tested on: ACHN renal
BT-549 breast = tested on: BT-549 breast
CAKI-1 renal = tested on: CAKI-1 renal
CCRF-CEM leukemia = tested on: CCRF-CEM leukemia
COLO 205 colon = tested on: COLO 205 colon
DU-145 prostate = tested on: DU-145 prostate
EKVX NSCLC = tested on: EKVX NSCLC
HCC-2998 colon = tested on: HCC-2998 colon
HCT-116 colon = tested on: HCT-116 colon
HCT-15 colon = tested on: HCT-15 colon
HL-60(TB) leukemia = tested on: HL-60(TB) leukemia
HOP-62 NSCLC = tested on: HOP-62 NSCLC
HOP-92 NSCLC = tested on: HOP-92 NSCLC
HS 578T breast = tested on: HS 578T breast
HT29 colon = tested on: HT29 colon
IGROV1 ovarian = tested on: IGROV1 ovarian
K-562 leukemia = tested on: K-562 leukemia
KM12 colon = tested on: KM12 colon
LOX IMVI melanoma = tested on: LOX IMVI melanoma
M14 melanoma = tested on: M14 melanoma
MALME-3M melanoma = tested on: MALME-3M melanoma
MCF7 breast = tested on: MCF7 breast
MDA-MB-231 breast = tested on: MDA-MB-231 breast
MDA-MB-435 = tested on: MDA-MB-435
MOLT-4 leukemia = tested on: MOLT-4 leukemia
NCI-H226 lung = tested on: NCI-H226 lung
NCI-H23 lung = tested on: NCI-H23 lung
NCI-H460 lung = tested on: NCI-H460 lung
NCI-H522 lung = tested on: NCI-H522 lung
NCI/ADR-RES ovarian = tested on: NCI/ADR-RES ovarian
OVCAR-4 ovarian = tested on: OVCAR-4 ovarian
OVCAR-5 ovarian = tested on: OVCAR-5 ovarian
OVCAR-8 ovarian = tested on: OVCAR-8 ovarian
PC-3 prostate = tested on: PC-3 prostate
RPMI-8226 leukemia = tested on: RPMI-8226 leukemia
RXF 393 renal = tested on: RXF 393 renal
SF-268 CNS = tested on: SF-268 CNS
SF-295 CNS = tested on: SF-295 CNS
SF-539 CNS = tested on: SF-539 CNS
SK-MEL-2 melanoma = tested on: SK-MEL-2 melanoma
SK-MEL-28 melanoma = tested on: SK-MEL-28 melanoma
SK-MEL-5 melanoma = tested on: SK-MEL-5 melanoma
SK-OV-3 ovarian = tested on: SK-OV-3 ovarian
SN12C renal = tested on: SN12C renal
SNB-19 CNS = tested on: SNB-19 CNS
SNB-75 CNS = tested on: SNB-75 CNS
SR leukemia = tested on: SR leukemia
SW-620 colon = tested on: SW-620 colon
T-47D breast = tested on: T-47D breast
TK-10 renal = tested on: TK-10 renal
U251 CNS = tested on: U251 CNS
UACC-257 melanoma = tested on: UACC-257 melanoma
UACC-62 melanoma = tested on: UACC-62 melanoma
UO-31 renal = tested on: UO-31 renal
OVCAR-3 ovarian = tested on: OVCAR-3 ovarian

C#Cc1ccc(C(=O)NCc2ccc(/C=C/C(=O)c3nccn3C)cc2)cc1
10.7 µM: TGI (HCC-2998 colon) | TGI (SNB-75 CNS)
13.2 µM: TGI (SF-295 CNS)
2.4 µM: TGI (LOX IMVI melanoma)
> 14.3 µM: TGI (786-0 renal) | TGI (A498 renal) | TGI (A549 NSCLC) | TGI (ACHN renal) | TGI (BT-549 breast) | TGI (CAKI-1 renal) | TGI (CCRF-CEM leukemia) | TGI (DU-145 prostate) | TGI (EKVX NSCLC) | TGI (HCT-116 colon) | TGI (HCT-15 colon) | TGI (HL-60(TB) leukemia) | TGI (HOP-62 NSCLC) | TGI (HOP-92 NSCLC) | TGI (HS 578T breast) | TGI (HT29 colon) | TGI (IGROV1 ovarian) | TGI (K-562 leukemia) | TGI (M14 melanoma) | TGI (MALME-3M melanoma) | TGI (MCF7 breast) | TGI (MDA-MB-231 breast) | TGI (MDA-MB-435) | TGI (MOLT-4 leukemia) | TGI (NCI-H226 lung) | TGI (NCI-H23 lung) | TGI (NCI-H522 lung) | TGI (NCI/ADR-RES ovarian) | TGI (OVCAR-4 ovarian) | TGI (OVCAR-5 ovarian) | TGI (PC-3 prostate) | TGI (RPMI-8226 leukemia) | TGI (SK-MEL-2 melanoma) | TGI (SK-MEL-28 melanoma) | TGI (SK-MEL-5 melanoma) | TGI (SK-OV-3 ovarian) | TGI (SN12C renal) | TGI (SNB-19 CNS) | TGI (SR leukemia) | TGI (SW-620 colon) | TGI (T-47D breast) | TGI (TK-10 renal) | TGI (U251 CNS) | TGI (UACC-257 melanoma) | TGI (UACC-62 melanoma) | TGI (UO-31 renal)
12.2 µM: TGI (SF-268 CNS)
9.03 µM: TGI (NCI-H460 lung)
inactive: GI50 (786-0 renal) 4.48 µM | GI50 (A498 renal) 2.12 µM | GI50 (A549 NSCLC) 4.6 µM | GI50 (ACHN renal) 4.8 µM | GI50 (BT-549 breast) 4.06 µM | GI50 (CAKI-1 renal) 5.97 µM | GI50 (CCRF-CEM leukemia) 3.68 µM | GI50 (COLO 205 colon) 3.6 µM | GI50 (DU-145 prostate) 4.83 µM | GI50 (EKVX NSCLC) 5.22 µM | GI50 (HCC-2998 colon) 3.32 µM | GI50 (HCT-116 colon) 4.56 µM | GI50 (HCT-15 colon) 2.39 µM | GI50 (HL-60(TB) leukemia) 3.5 µM | GI50 (HOP-62 NSCLC) 4.33 µM | GI50 (HOP-92 NSCLC) 3.77 µM | GI50 (HS 578T breast) 4.75 µM | GI50 (HT29 colon) 4.61 µM | GI50 (IGROV1 ovarian) 3.77 µM | GI50 (K-562 leukemia) 3.21 µM | GI50 (KM12 colon) 2.67 µM | GI50 (LOX IMVI melanoma) 0.543 µM | GI50 (M14 melanoma) 7.91 µM | GI50 (MALME-3M melanoma) > 14.3 µM | GI50 (MCF7 breast) 2.7 µM | GI50 (MDA-MB-231 breast) 3.97 µM | GI50 (MDA-MB-435) 4.15 µM | GI50 (MOLT-4 leukemia) 4.2 µM | GI50 (NCI-H226 lung) 5.03 µM | GI50 (NCI-H23 lung) 3.48 µM | GI50 (NCI-H460 lung) 3.24 µM | GI50 (NCI-H522 lung) 6.16 µM | GI50 (NCI/ADR-RES ovarian) 3.67 µM | GI50 (OVCAR-4 ovarian) 5.71 µM | GI50 (OVCAR-5 ovarian) 4.75 µM | GI50 (OVCAR-8 ovarian) 3.11 µM | GI50 (PC-3 prostate) 5.36 µM | GI50 (RPMI-8226 leukemia) 2.37 µM | GI50 (RXF 393 renal) 3.44 µM | GI50 (SF-268 CNS) 3.36 µM | GI50 (SF-295 CNS) 3.65 µM | GI50 (SF-539 CNS) 2.65 µM | GI50 (SK-MEL-2 melanoma) > 14.3 µM | GI50 (SK-MEL-28 melanoma) 6.16 µM | GI50 (SK-MEL-5 melanoma) > 14.3 µM | GI50 (SK-OV-3 ovarian) 8.34 µM | GI50 (SN12C renal) 4.34 µM | GI50 (SNB-19 CNS) 3.1 µM | GI50 (SNB-75 CNS) 2.19 µM | GI50 (SR leukemia) 0.93 µM | GI50 (SW-620 colon) 4.31 µM | GI50 (T-47D breast) 6 µM | GI50 (TK-10 renal) 5.42 µM | GI50 (U251 CNS) 2.15 µM | GI50 (UACC-257 melanoma) > 14.3 µM | GI50 (UACC-62 melanoma) 6.27 µM | GI50 (UO-31 renal) 3.91 µM
12.7 µM: TGI (COLO 205 colon)
6.24 µM: TGI (SF-539 CNS)
8.27 µM: TGI (OVCAR-8 ovarian)
8.57 µM: TGI (KM12 colon)
14.2 µM: TGI (RXF 393 renal)

Cc1ccc(NC(=O)c2cc(/C=C/C(=O)NO)cc(C(F)(F)F)c2)cc1Nc1nccc(-c2cccnc2)n1
3.78 µM: TGI (SK-OV-3 ovarian)
5.83 µM: TGI (SNB-75 CNS)
5.14 µM: TGI (CAKI-1 renal)
inactive: GI50 (786-0 renal) 2.41 µM | GI50 (A498 renal) 3.13 µM | GI50 (ACHN renal) 3.12 µM | GI50 (BT-549 breast) 3.3 µM | GI50 (CAKI-1 renal) 2.23 µM | GI50 (CCRF-CEM leukemia) 0.559 µM | GI50 (DU-145 prostate) 2.04 µM | GI50 (EKVX NSCLC) 3.48 µM | GI50 (HCC-2998 colon) 1.76 µM | GI50 (HCT-15 colon) 3.34 µM | GI50 (HL-60(TB) leukemia) 1.08 µM | GI50 (HOP-92 NSCLC) 0.58 µM | GI50 (HS 578T breast) 1.83 µM | GI50 (IGROV1 ovarian) 1.74 µM | GI50 (LOX IMVI melanoma) 1.35 µM | GI50 (M14 melanoma) 1.34 µM | GI50 (MALME-3M melanoma) 0.58 µM | GI50 (MCF7 breast) 1.75 µM | GI50 (MDA-MB-231 breast) 1.14 µM | GI50 (MDA-MB-435) 1.53 µM | GI50 (NCI-H226 lung) 1.78 µM | GI50 (NCI-H460 lung) 2 µM | GI50 (NCI-H522 lung) 1.35 µM | GI50 (NCI/ADR-RES ovarian) 44 µM | GI50 (OVCAR-3 ovarian) 1.52 µM | GI50 (OVCAR-8 ovarian) 1.44 µM | GI50 (PC-3 prostate) 3.02 µM | GI50 (RPMI-8226 leukemia) 2.11 µM | GI50 (RXF 393 renal) 1.66 µM | GI50 (SF-268 CNS) 2.35 µM | GI50 (SF-295 CNS) 1.77 µM | GI50 (SK-MEL-2 melanoma) 1.09 µM | GI50 (SK-MEL-28 melanoma) 1.56 µM | GI50 (SK-MEL-5 melanoma) 1.57 µM | GI50 (SK-OV-3 ovarian) 1.83 µM | GI50 (SN12C renal) 2.54 µM | GI50 (SNB-19 CNS) 2.7 µM | GI50 (SNB-75 CNS) 2.66 µM | GI50 (SW-620 colon) 1.54 µM | GI50 (T-47D breast) 1.41 µM | GI50 (TK-10 renal) 2.98 µM | GI50 (U251 CNS) 1.49 µM | GI50 (UACC-257 melanoma) 1.32 µM
3.65 µM: TGI (RXF 393 renal)
5.09 µM: TGI (NCI-H226 lung)
4.51 µM: TGI (MDA-MB-231 breast)
3.19 µM: TGI (NCI-H522 lung)
5.7 µM: TGI (SF-268 CNS)
7.62 µM: TGI (SNB-19 CNS)
2.8 µM: TGI (UACC-257 melanoma)
2.71 µM: TGI (HOP-92 NSCLC)
6.65 µM: TGI (A498 renal)
5.85 µM: TGI (MCF7 breast)
6.91 µM: TGI (TK-10 renal)
4.68 µM: TGI (OVCAR-8 ovarian)
8.5 µM: TGI (BT-549 breast)
3.73 µM: TGI (HL-60(TB) leukemia)
3.71 µM: TGI (M14 melanoma)
4.36 µM: TGI (IGROV1 ovarian)
3.32 µM: TGI (SK-MEL-2 melanoma)
4.24 µM: TGI (MDA-MB-435)
3.24 µM: TGI (MALME-3M melanoma)
12.3 µM: TGI (NCI-H460 lung)
6.35 µM: TGI (HS 578T breast)
3.03 µM: TGI (U251 CNS)
3.01 µM: TGI (SK-MEL-5 melanoma)
5.66 µM: TGI (SW-620 colon)
4.21 µM: TGI (OVCAR-3 ovarian)
3.43 µM: TGI (SF-295 CNS)
8.76 µM: TGI (RPMI-8226 leukemia)
3.56 µM: TGI (HCC-2998 colon)
> 100 µM: TGI (ACHN renal) | TGI (CCRF-CEM leukemia) | TGI (EKVX NSCLC) | TGI (HCT-15 colon) | TGI (NCI/ADR-RES ovarian) | TGI (PC-3 prostate) | TGI (SN12C renal)
5.8 µM: TGI (T-47D breast)
5.31 µM: TGI (786-0 renal)
6.63 µM: TGI (DU-145 prostate)
3.02 µM: TGI (LOX IMVI melanoma)
5.27 µM: TGI (SK-MEL-28 melanoma)
